Consider two compounds from patent US20090043123A1, “Dilute Stabilized Peracetic Acid Production and Treatment Process” (priority 2007, published 2009).

For data set [1] the following is noted: cited from earlier work.
Data set [2] can be described thus: Stability/decomposition of peracetic acid formed in buffered aqueous medium (Example 1, FIG. 4). The note with it: 25° C. It counts as physicochemical. The text has this: The mole ratio of hydrogen peroxide to acetic anhydride used in this Example 1 was 5.7 moles H2O2 per mole of acetic anhydride, a mole ratio that provided a large stoichiometric excess of hydrogen peroxide. Three pH values were used: 10.0, 6.8 and 4.5. The aqueous medium in each study was appropriately buffered to maintain the specific pH value throughout the duration of the run.
In each of the three runs, the operating procedure was as follows. A dilute aqueous buffered hydrogen peroxide solution, containing 585 ppm H2O2, was prepared and maintained at a temperature of 25° C. No hydrogen peroxide stabilizers were added to the solution. Acetic anhydride, undiluted (i.e., 100%) and in an amount sufficient to provide the desired 5.7:1 mole ratio of H2O2:acetic anhydride, was added to the buffered hydrogen peroxide solution. Measurements of peracetic acid and hydrogen peroxide concentrations were obtained from samples taken periodically over a period of 180 minutes. Results of these three studies, as peracetic acid concentration vs. time, are plotted in the graph shown as FIG. 4.

For data set [3] the following is noted: aqueous solution; cited from earlier work.
For data set [4], the system named is microorganisms. The settings on record: as low as 1 or 2 ppm peracetic acid; cited from earlier work.

On to `CC(=O)OC(C)=O` [Acetic anhydride], for which the solubility in water entry in data set [1] is reported as “less than 3 wt %”.
On to Peracetic acid, for which the peracetic stability entry in data set [2] (pH 6.8, buffered aqueous medium, 5.7:1 H2O2:acetic anhydride, followed over 180 minutes) is “relatively good”. Moreover, the “decomposition of the peracetic acid formed” value in data set [2] (pH 10.0, buffered aqueous medium, after peracetic acid formation was complete) is listed as “high”. For the same compound, the “acid dissociation constant (pKa)” value in data set [3] is given as 8.2. Further, the “activity at very low concentrations” value in data set [4] is “very active”.
